Here are results for two compounds from patent publication US6936572B2, “Agrochemical formulation aid composition and uses thereof” (Adjuvants Plus Inc., priority 2000, dated 2005).

Each structure is given as a SMILES string. Read-outs that look alike come from different tables or passages of the source.

Test [1] deals with Lambsquarters. The conditions noted are these: 21 DAT, spray volume 200 l/ha. The procedure: (§1) The results shown in Table 3 were obtained by applying the mixture of dicamba technical acid (87%) and the formulation aid to two fields infected with various annual and perennial weeds (indicated in Table 3). The experiments were conducted between the period of September 1998 to August 2000.

Test [2] relates to Pig Weed. The following applies: 21 DAT, spray volume 200 l/ha. The protocol:
as §1

Test [3] concerns various annual and perennial weeds. The following applies: 21 DAT; spray volume of 200 l/ha; different rates; two fields. The protocol:
as §1

The test system of another test is Canada Thistle. The experiment in a line: Field control of broad-spectrum weeds with glyphosate technical acid + formulation aid (Example 2). Type of test: in vivo. The conditions noted are these: 21 DAT. The protocol: (§2) Prior to any preparation all spray-mixing and application equipment were cleaned thoroughly by observing cleaning directions provided on the agrochemical labeling and accompanying materials provided by the maker. Half of the required water was placed in a spray tank. A required amount of the formulation aid was added in the spray tank for the required rate of glyphosate application as indicated in Table 1. […] Mixing was continued and remainder of the water was added to the spray tank. Mixing was: continued for another 5-10 minutes. The ready to use herbicide and formulation aid mixture was applied by spraying at the required rate.
(§3) The formulation aid tested in this example contained about 21.5% by weight aromatic hydrocarbon distillate, about 3.1% by weight 2N-octanol, about 5.7% by weight oleyl-cetyl alcohol, about 3.1% by weight polyoxyethylene (8) nonylphenolethin, about 33.3% by weight polyoxyalkylated fatty alcohol, and about 33.3% by weight ethoxylated tallow amine blend.

For a further test, the system named is Catnip. Described as above. Format: in vivo. The following applies: 21 DAT. The protocol:
as §2, §3

The next test concerns Dandelions. Described as above. The conditions noted are these: 21 DAT. Format: in vivo. The protocol:
as §2, §3

The test system of test [4] is Lambsquarters. The test is described as above. Type of test: in vivo. The following applies: 21 DAT. The protocol:
as §2, §3

Test [5] has as its system Pig Weed. The description is as above. Type of test: in vivo. The conditions noted are these: 21 DAT. The protocol: as §2, §3
The next test concerns Quackgrass. Described as above. Type of test: in vivo. The conditions noted are these: 21 DAT. The protocol: as §2, §3
Another test has as its system Sow Thistle. The description is as above. Type of test: in vivo. The conditions noted are these: 21 DAT. The procedure:
as §2, §3

The next test relates to Annual grasses. The description is as above. Type of test: in vivo, foxtails, annual bluegrass, crabgrass, witchgrass. The following applies: 21 DAT. The protocol: as §2, §3
The test system of test [6] is various annual and perennial weeds. Briefly: Field weed control overall, glyphosate technical acid (Example 2). Type of test: in vivo. The conditions noted are these: 21 DAT; different rates; 10 fields. The protocol: as §2, §3
Setting [7] is: Dicamba 0.140 Kg/ha + formulation aid 1.0 L/ha or + water.
The mark [8] stands for this setting: Dicamba 0.280 Kg/ha + formulation aid 1.0 L/ha or + water.
Setting [9] is: glyphosate technical acid (95%) 0.24 Kg or l/ha + formulation aid 0.5 l/ha or + water.
Where [10] appears, read: glyphosate technical acid (95%) 0.53 Kg or l/ha + formulation aid 0.5 l/ha or + water.
Where [11] appears, read: glyphosate technical acid (95%) 0.94 Kg or l/ha + formulation aid 0.9 l/ha or + water.

For `COc1c(Cl)ccc(Cl)c1C(=O)O` [Dicamba + water, 3,6-dichloro-2-methoxybenozic acid], the “Control of Lambsquarters” value in the test with Lambsquarters [1] (setting [7]) and in the test on Lambsquarters [1] (setting [8]) was 0% each time. Besides, the “Control of Pig Weed” value in the test on Pig Weed [2] (setting [7]) and in the test with Pig Weed [2] (setting [8]) was 0% in each case. Moreover, the “weed control (in words)” value in test [3] is reported as “No weed control”.
For the compound `O=C(O)CNCP(=O)(O)O` [Glyphosate + water, N-phosphonomethylglycine], the “Control of Canada Thistle” value in the test on Canada Thistle (setting [9]), in the test with Canada Thistle (setting [10]) and in the test with Canada Thistle (setting [11]) was 0% throughout. Also, the “Control of Catnip” value in the test on Catnip (setting [9]), in the test with Catnip (setting [10]) and in the test with Catnip (setting [11]) was 0% throughout. Besides, the “Control of Dandelions” value with Dandelions (setting [9]), with Dandelions (setting [10]) and with Dandelions (setting [11]) was 0% in each case. The “Control of Lambsquarters” value in the test with Lambsquarters [4] (setting [9]), in the test on Lambsquarters [4] (setting [10]) and in the test with Lambsquarters [4] (setting [11]) was 0% in each case. In addition, the “Control of Pig Weed” value in the test with Pig Weed [5] (setting [9]), in the test on Pig Weed [5] (setting [10]) and with Pig Weed [5] (setting [11]) was 0% throughout. In addition, the “Control of Quackgrass” value with Quackgrass (setting [9]), in the test on Quackgrass (setting [10]) and in the test on Quackgrass (setting [11]) was 0% in each case. For the same compound, the “Control of Sow Thistle” value in the test with Sow Thistle (setting [9]), with Sow Thistle (setting [10]) and with Sow Thistle (setting [11]) was 0% each time. In addition, the “Control of Annual grasses” value in the test on Annual grasses (setting [9]), in the test with Annual grasses (setting [10]) and in the test on Annual grasses (setting [11]) was 0% in each case. Also, the “weed control (in words)” value in test [6] is listed as “No weed control”.
